In patent EP4122466A1 (priority 2021, dated 2023):
pEC50: −log10 of the molar value. “Also recorded” adds a separate entry of the source.

Legend:
VSV*ΔG(Luc)-S virus = assay: organism not typed; assay type: cell-based
SARS-CoV-2 pseudovirus = assay type: cell-based
VSV.G virus = assay type: cell-based
SARS-CoV-2 = details: cited from earlier work
[1] = system: Human Lung Tissue (HTL) cells

## Cc1cn(-c2cc(NC(=O)c3ccc(C)c(Nc4nccc(-c5cccnc5)n4)c3)cc(C(F)(F)F)c2)cn1 [nilotinib]
VSV*ΔG(Luc)-S virus
  pEC50: < 4.82
SARS-CoV-2 pseudovirus
  inhibition of virus infection: dose-dependent inhibition of virus infection
VSV.G virus
  inhibition of the VSV.G virus: partially inhibit
SARS-CoV-2
  in vitro activity against SARS-CoV-2: did show in vitro antiviral effect

## Cc1ccc(NC(=O)c2ccc(CN3CCN(C)CC3)cc2)cc1Nc1nccc(-c2cccnc2)n1 [imatinib]
SARS-CoV-2
  in vitro activity against SARS-CoV-2: do not show antiviral efficacy

## Cc1cccc(/C=N/Nc2cc(N3CCOCC3)nc(OCCc3ccccn3)n2)c1 [apilimod]
VSV*ΔG(Luc)-S virus
  decrease in infection rate: lower decrease in infection rate
  infection rate: 50%
SARS-CoV-2 pseudovirus
  inhibition of virus infection: dose-dependent inhibition of virus infection
VSV.G virus
  inhibition of the VSV.G virus: partially inhibit

## CN1CCN(c2ccc(C(=O)Nc3n[nH]c4ccc(Cc5cc(F)cc(F)c5)cc34)c(NC3CCOCC3)c2)CC1 [entrectinib]
VSV*ΔG(Luc)-S virus
  pEC50: > 6.00
SARS-CoV-2 pseudovirus
  inhibition of virus infection: dose-dependent inhibition of virus infection
VSV.G virus
  inhibition of the VSV.G virus: partially inhibit; also recorded: demonstrated an antiviral effect
[1]
  cell death: without inducing significant cell death
